Measured values: ChEMBL document CHEMBL1123972, “Drug-induced modifications of the immune response. 12. 4,5-Dihydro-4-oxo-2-(substituted amino)-3-furancarboxylic acids and derivatives as novel antiallergic agents” (1988)
Where a name gives a salt, the structure may show the parent alone.

Tests used:
Format in all cases: functional
Rattus norvegicus [1] = test: Inhibition of bradykinin-induced dermal vascular permeability in rats at a intraperitoneal dose of 100 mg/kg 1 hr prior to challenge; conditions: ip
Rattus norvegicus [2] = test: Inhibition of serotonin -induced dermal vascular permeability in rats at a intraperitoneal dose of 100 mg/kg 1 hr prior to challenge; conditions: ip
Rattus norvegicus [3] = test: Inhibition of histamine -induced dermal vascular permeability in rats at a intraperitoneal dose of 100 mg/kg 1 hr prior to challenge; conditions: ip
Rattus norvegicus [4] = test: Antiallergic activity of edema in the active anaphylaxis assay at a intraperitoneal dose of 100 mg/kg in rats; set-up: unit not given here
Rattus norvegicus [5] = test: Antiallergic activity evaluated as percent inhibition at intraperitoneal dose of 100 mg/kg in rats; conditions: for inhibition in vivo at 100 mg/kg: Rattus norvegicus, ip
Rattus norvegicus [6] = test: Inhibition of serotonin -induced dermal vascular permeability in rats at a peroral dose of 100 mg/kg 1 hr prior to challenge; conditions: route oral
Rattus norvegicus [7] = test: Inhibition of histamine -induced dermal vascular permeability in rats at a peroral dose of 100 mg/kg 1 hr prior to challenge; conditions: route oral
Rattus norvegicus [8] = test: Inhibition of bradykinin-induced dermal vascular permeability in rats at a peroral dose of 100 mg/kg 1 hr prior to challenge; conditions: route oral
Rattus norvegicus [9] = test: Antiallergic activity evaluated as percent inhibition at peroral dose of 100 mg/kg in rats; conditions: route oral
Rattus norvegicus [10] = test: Antiallergic activity of edema in the active anaphylaxis assay at a peroral dose of 100 mg/kg in rats; conditions: route oral

Row | Compound | inhibition in vivo at 100 mg/kg (Rattus norvegicus [1]) | inhibition in vivo at 100 mg/kg (Rattus norvegicus [2]) | inhibition in vivo at 100 mg/kg (Rattus norvegicus [3]) | Activity (Rattus norvegicus [4]) | inhibition in vivo at 100 mg/kg (Rattus norvegicus [5]) | further results
1 | CN1CCC(=C2c3ccccc3C=Cc3ccccc32)CC1 [CYPROHEPTADINE HYDROCHLORIDE] | 23% | 93% | 93% |  |  | 
2 | O=C([O-])C1=C(Nc2ccccc2)OCC1=O.[Na+] |  |  |  | 2.75 |  | Inhibition (Rattus norvegicus [5]): 17%
3 | O=C1COC(Nc2ccc(Cl)cc2)=C1C(=O)Nc1ccc(Cl)cc1 | 44% | 14% | 15% |  |  | 
4 | O=C(O)C1=C(Nc2ccccc2)OCC1=O |  |  |  | 0.47 |  | Inhibition (Rattus norvegicus [5]): 81%
5 | O=C(O)C1=C(Nc2ccc(Br)cc2)OCC1=O |  |  |  | 3.24 | 27% | inhibition in vivo at 100 mg/kg (Rattus norvegicus [6]): 39%; inhibition in vivo at 100 mg/kg (Rattus norvegicus [7]): 45%; inhibition in vivo at 100 mg/kg (Rattus norvegicus [8]): 68%
6 | CCOC(=O)C1=C(NC2CC2c2ccc(Cl)cc2)OCC1=O (stereo unspecified) | 76% | 51% | 60% |  |  | 
7 | O=C([O-])C1=C(NC2CC2c2ccccc2)OCC1=O.[Na+] (stereo unspecified) |  |  |  | 3.72 | 22% | 
8 | CCOC(=O)C1=C(Nc2cccc(C(F)(F)F)c2)OCC1=O |  |  |  |  |  | inhibition in vivo at 100 mg/kg (Rattus norvegicus [6]): 9.7%; inhibition in vivo at 100 mg/kg (Rattus norvegicus [7]): 4.1%; inhibition in vivo at 100 mg/kg (Rattus norvegicus [8]): 40%
9 | O=C(O)C1=C(Nc2cccc(C(F)(F)F)c2)OCC1=O |  |  |  | 3.35 | 45% | inhibition in vivo at 100 mg/kg (Rattus norvegicus [6]): 40%; inhibition in vivo at 100 mg/kg (Rattus norvegicus [7]): 26%; inhibition in vivo at 100 mg/kg (Rattus norvegicus [8]): 54%
10 | O=C(O)C1=C(Nc2ccc(C(=O)O)cc2)OCC1=O | 64% | 63% | 64% | 2 | 52% | 
11 | COc1ccc(NC(=O)C2=C(Nc3ccc(OC)cc3)OCC2=O)cc1 | 39% | 13% | 8% |  |  | 
12 | CCOC(=O)C1=C(Nc2ccccc2)OC(C)C1=O (stereo unspecified) | 46% | 37% | 40% | 1.44 | 61% | 
13 | Cc1ccc(C2CC2NC2=C(C(=O)O)C(=O)CO2)cc1 (stereo unspecified) | 100% | 100% | 100% | 1.58 | 45% | 
14 | Cc1ccccc1NC(=O)C1=C(Nc2ccccc2C)OCC1=O | 7% | 9% | 0% |  |  | 
15 | CCOC(=O)C1=C(Nc2ccccc2)OC(C)(C)C1=O |  |  |  | 7.71 | 16% | 
16 | O=C(O)C1=C(NC2CC2c2ccc(Cl)cc2)OCC1=O (stereo unspecified) | 71% | 54% | 56% | 4.1 | 6% | 
17 | CC1(C)OC(Nc2ccccc2)=C(C(=O)O)C1=O |  |  |  | 1.95 | 44% | 
18 | CCOC(=O)C1=C(NC)OCC1=O | 25% | 38% | 50% |  |  | 
19 | O=C1COC(Nc2ccccc2)=C1C(=O)Nc1ccccc1 |  |  |  | 2.45 | 46% | 
20 | CC1OC(Nc2ccccc2)=C(C(=O)O)C1=O (stereo unspecified) |  |  |  | 2 | 60% | 
21 | CCOC(=O)C1=C(Nc2ccc(C(=O)OCC)cc2)OCC1=O |  |  |  |  |  | inhibition in vivo at 100 mg/kg (Rattus norvegicus [6]): 18%; inhibition in vivo at 100 mg/kg (Rattus norvegicus [7]): 21%; inhibition in vivo at 100 mg/kg (Rattus norvegicus [8]): 21%
22 | Cn1c(=O)c2nc[nH]c2n(C)c1=O.O [THEOPHYLLINE] |  |  |  |  |  | inhibition in vivo at 100 mg/kg (Rattus norvegicus [9]): 66%; Activity (Rattus norvegicus [10]): 3.75
23 | CCOC(=O)C1=C(NC2CC2c2ccccc2)OCC1=O (stereo unspecified) |  |  |  |  |  | inhibition in vivo at 100 mg/kg (Rattus norvegicus [6]): 57%; inhibition in vivo at 100 mg/kg (Rattus norvegicus [7]): 35%; inhibition in vivo at 100 mg/kg (Rattus norvegicus [8]): 59%
24 | COc1ccccc1NC1=C(C(=O)O)C(=O)CO1 |  |  |  | 3.45 | 45% | inhibition in vivo at 100 mg/kg (Rattus norvegicus [6]): 30%; inhibition in vivo at 100 mg/kg (Rattus norvegicus [7]): 27%; inhibition in vivo at 100 mg/kg (Rattus norvegicus [8]): 38%
25 | COc1ccccc1NC(=O)C1=C(Nc2ccccc2OC)OCC1=O | 39% | 18% | 1% |  |  | 
26 | CCOC(=O)C1=C(Nc2ccc(Cl)cc2)OCC1=O |  |  |  |  |  | inhibition in vivo at 100 mg/kg (Rattus norvegicus [6]): 6.6%; inhibition in vivo at 100 mg/kg (Rattus norvegicus [7]): 3.3%; inhibition in vivo at 100 mg/kg (Rattus norvegicus [8]): 9.5%
27 | O=C(O)C1=C(Nc2cccc([N+](=O)[O-])c2)OCC1=O | 48% | 18% | 16% | 7.29 | 39% | 
28 | O=C(O)C1=C(Nc2cccc3ccccc23)OCC1=O |  |  |  | 1.2 | 64% | 
